For 31 molecules, IC50 results are on record in US7749996B2, “Heterotricyclic metalloprotease inhibitors” (Alantos Pharmaceutical Holdings, Inc., priority 2006, dated 2010).

For orientation: IC50 means the concentration that inhibits the measured activity by half. A higher IC50 goes with lower potency.

Common to all, as to assay type: biochemical
For assay [1], the target named is T1, catalytic domain of MMP-3 enzyme (Homo sapiens, UniProt P08254).
T1 construct: stock solution of the catalytic domain of MMP-3 enzyme (Biomol, Cat. No. SE-109); purchased Biomol SE-109
Nature of the assay: Assay for determining MMP-3 inhibition (NFF-3 fluorescent substrate). The settings on record: Table 3, activity group. The procedure:
The typical assay for MMP-3 activity is carried out in assay buffer comprised of 50 mM MES, pH 6.0, 10 mM CaCl2 and 0.05% Brij-35. Different concentrations of tested compounds are prepared in assay buffer in 50 μL aliquots. […] The mixture of enzyme and compound in assay buffer is thoroughly mixed and incubated for 10 min at room temperature. […] The time-dependent increase in fluorescence is measured at the 330 nm excitation and 390 nm emission by an automatic plate multireader. The IC50 values are calculated from the initial reaction rates.

The target of the next assay is T2, activated MMP-8 enzyme (Homo sapiens, UniProt P22894).
T2 construct: purchased Calbiochem 444229
Nature of the assay: Assay for determining MMP-8 inhibition (fluorescent substrate). The settings on record: Table 2, activity group. The procedure: The typical assay for MMP-8 activity is carried out in assay buffer comprised of 50 mM Tris, pH 7.5, 150 mM NaCl, 5 mM CaCl2 and 0.05% Brij-35. Different concentrations of tested compounds are prepared in assay buffer in 50 μL aliquots. […] The mixture of enzyme and compound in assay buffer is thoroughly mixed and incubated for 10 min at 37° C. […] The time-dependent increase in fluorescence is measured at the 320 nm excitation and 390 nm emission by an automatic plate multireader at 37° C. The IC50 values are calculated from the initial reaction rates.

The target in assay [2] is T3, catalytic domain of MMP-13 enzyme (Homo sapiens, UniProt P45452).
T3 construct: stock solution of catalytic domain of MMP-13 enzyme (produced by Alantos or commercially available from Invitek (Berlin), Cat.# 30100812); purchased Invitek (Berlin) 30100812
Nature of the assay: Assay for determining MMP-13 inhibition (fluorescent substrate). As to conditions: Table 1, activity group. As to the method: The typical assay for MMP-13 activity is carried out in assay buffer comprised of 50 mM Tris, pH 7.5, 150 mM NaCl, 5 mM CaCl2 and 0.05% Brij-35. Different concentrations of tested compounds are prepared in assay buffer in 50 μL aliquots. […] The mixture of enzyme and compound in assay buffer is thoroughly mixed and incubated for 10 min at room temperature. […] The time-dependent increase in fluorescence is measured at the 320 nm excitation and 390 nm emission by automatic plate multireader. The IC50 values are calculated from the initial reaction rates.

Structures are written as SMILES. A value given as a limit tells only on which side of the number the result lay.

T2 sequence (P22894 101-467): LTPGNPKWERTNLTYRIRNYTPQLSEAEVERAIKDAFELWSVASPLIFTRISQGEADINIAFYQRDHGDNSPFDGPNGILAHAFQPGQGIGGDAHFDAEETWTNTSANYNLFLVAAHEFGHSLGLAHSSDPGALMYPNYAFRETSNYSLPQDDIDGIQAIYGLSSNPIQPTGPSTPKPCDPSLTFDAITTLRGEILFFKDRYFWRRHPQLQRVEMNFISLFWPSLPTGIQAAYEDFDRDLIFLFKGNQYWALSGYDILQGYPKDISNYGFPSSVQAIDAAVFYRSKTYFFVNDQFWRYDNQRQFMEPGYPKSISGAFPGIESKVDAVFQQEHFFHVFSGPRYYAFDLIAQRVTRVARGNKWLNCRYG
T1 sequence (P08254 100-272 limits assumed): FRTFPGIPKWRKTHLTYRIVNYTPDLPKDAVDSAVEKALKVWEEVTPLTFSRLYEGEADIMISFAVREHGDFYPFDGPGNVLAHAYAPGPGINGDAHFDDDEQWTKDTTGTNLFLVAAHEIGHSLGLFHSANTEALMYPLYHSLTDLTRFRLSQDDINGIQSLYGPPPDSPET

Consider `CC(=O)N1CCc2c(sc3nc(C(=O)NCc4ccc5c(c4)CN(c4c(N)c(=O)c4=O)CC5)[nH]c(=O)c23)C1` [2/95], for which the IC50 in assay [1] is 250 to 20000 nM; at activated MMP-8 enzyme, under 250 nM; in assay [2] it was under 100 nM.

As for `O=C1COc2ccc(CNC(=O)c3nc4sc5c(c4c(=O)[nH]3)CCS(=O)(=O)C5)cc2N1` [2/103], the half-maximal inhibitory concentration (IC50) was under 250 nM in assay [1], under 250 nM against activated MMP-8 enzyme and under 100 nM in assay [2].

Take `Nc1c(N2CCc3ccc(CNC(=O)c4nc5sc6c(c5c(=O)[nH]4)CCS(=O)(=O)C6)cc3C2)c(=O)c1=O` [2/104]: the concentration for half-maximal inhibition (IC50) (in assay [1]; against activated MMP-8 enzyme) was under 250 nM throughout.

Regarding `COc1ccc2c(c1)CCc1sc3nc(C(=O)NCc4ccc5c(c4)NC(=O)CO5)[nH]c(=O)c3c1-2` [2/107], the IC50 in assay [1] is 250 to 20000 nM; against activated MMP-8 enzyme, under 250 nM; in assay [2], under 100 nM.

Take `COc1ccc2c(c1)CCc1sc3nc(C(=O)NCc4ccc5c(c4)CN(c4c(N)c(=O)c4=O)CC5)[nH]c(=O)c3c1-2` [2/108]: the IC50 in assay [1] was 250 to 20000 nM; in assay [2] it was under 100 nM.

Consider `CC1SCc2sc3nc(C(=O)NCc4ccc5c(c4)CN(c4c(N)c(=O)c4=O)CC5)[nH]c(=O)c3c21` (stereo not drawn) [2/132], for which the values for the IC50 (in assay [1]; against activated MMP-8 enzyme; in assay [2]) were 250 to 20000 nM, under 250 nM and under 100 nM, respectively.

Consider `CC(C)(C)OC(=O)N1CCc2sc3nc(C(=O)NCc4ccc5c(c4)NC(=O)CO5)[nH]c(=O)c3c2CC1` [2/171], for which the IC50 in assay [1] is 250 to 20000 nM; on activated MMP-8 enzyme, under 250 nM; in assay [2] it was under 100 nM.

Turning to `O=C1COc2ccc(CNC(=O)C3NC(=O)c4c(sc5c4CCCN(CC4CCCCO4)C5=O)N3)cc2N1` (stereo not drawn) [2/188], the half-inhibitory concentration (IC50) in assay [1] was 250 to 20000 nM; on activated MMP-8 enzyme, under 250 nM; in assay [2] it was under 100 nM.

For the molecule `CCOC(=O)C1CCc2sc3nc(C(=O)NCc4ccc5c(c4)NC(=O)CO5)[nH]c(=O)c3c2C1` (stereo not drawn) [2/208], the figures for the IC50 in assay [1] and in assay [2] were 250 to 20000 nM and under 100 nM, respectively.

For `CCOC(=O)C1CCc2sc3nc(C(=O)NCc4ccc5c(c4)CN(c4c(N)c(=O)c4=O)CC5)[nH]c(=O)c3c2C1` (stereo not drawn) [2/209], the 50% inhibitory concentration (IC50) in assay [1] was 250 to 20000 nM; at activated MMP-8 enzyme, under 250 nM; in assay [2], under 100 nM.

With `CCOC(=O)C1Cc2sc3nc(C(=O)NCc4ccc5c(c4)NC(=O)CO5)[nH]c(=O)c3c2C1` (stereo not drawn) [2/210], the values for the IC50 in assay [1] and in assay [2] were 250 to 20000 nM and under 100 nM, respectively.

With `O=C1COc2ccc(CNC(=O)c3nc4sc5c(c4c(=O)[nH]3)CCOCC5)cc2N1` [2/211], the 50% inhibitory concentration (IC50) in assay [1] is 250 to 20000 nM; at activated MMP-8 enzyme, under 250 nM; in assay [2], under 100 nM.

Turning to `CC(C)CNC(=O)C1Cc2sc3nc(C(=O)NCc4ccc5c(c4)NC(=O)CO5)[nH]c(=O)c3c2C1` (stereo not drawn) [2/231], the values for the IC50 in assay [1] and in assay [2] were 250 to 20000 nM and under 100 nM, respectively.

With `NC(=O)C1Cc2sc3nc(C(=O)NCc4ccc5c(c4)CN(c4c(N)c(=O)c4=O)CC5)[nH]c(=O)c3c2C1` (stereo not drawn) [2/232], in assay [1], the half-inhibitory concentration (IC50) lay in the range of 250 to 20000 nM.

Take `CCOC(=O)CC1CCCc2sc3nc(C(=O)NCc4ccc5c(c4)NC(=O)CO5)[nH]c(=O)c3c21` (stereo not drawn) [2/236]: in assay [1], the IC50 is 250 to 20000 nM.

`NC(=O)CC1CCCc2sc3nc(C(=O)NCc4ccc5c(c4)NC(=O)CO5)[nH]c(=O)c3c21` (stereo not drawn) [2/240] had an IC50 in assay [1] of 250 to 20000 nM.

On to `O=C1COc2ccc(CNC(=O)c3nc4ccc5c(c4c(=O)[nH]3)CCC5)cc2N1` [2/245], for which the half-maximal inhibitory concentration (IC50) is 250 to 20000 nM in assay [1] and under 100 nM in assay [2].

Regarding `O=C1COc2ccc(CNC(=O)c3nc4sc5c(c4c(=O)[nH]3)CC(C(=O)O)C5)cc2N1` (stereo not drawn) [4/15], the figures for the concentration for half-maximal inhibition (IC50) (in assay [1]; at activated MMP-8 enzyme; in assay [2]) were 250 to 20000 nM, under 250 nM and under 100 nM, respectively.

On to `O=C(O)CNC(=O)C1CCc2sc3nc(C(=O)NCc4ccc5c(c4)NC(=O)CO5)[nH]c(=O)c3c21` (stereo not drawn) [15/2], for which the 50% inhibitory concentration (IC50) is 250 to 20000 nM in assay [1], under 250 nM at activated MMP-8 enzyme and under 100 nM in assay [2].

As to `CC1c2c(sc3nc(C(=O)NCc4ccc5c(c4)NC(=O)CO5)[nH]c(=O)c23)CS1(=O)=O` (stereo not drawn) [22/2], the values for the IC50 (in assay [1]; against activated MMP-8 enzyme; in assay [2]) were 250 to 20000 nM, 250 to 20000 nM and under 100 nM, respectively.

`CS(=O)(=O)N1Cc2sc3nc(C(=O)NCc4ccc5c(c4)NC(=O)CO5)[nH]c(=O)c3c2C1` [42/2]: the IC50 in assay [1] was under 250 nM; on activated MMP-8 enzyme, under 250 nM; in assay [2], under 100 nM.

As to `O=C(O)CC1CCCc2sc3nc(C(=O)NCc4ccc5c(c4)NC(=O)CO5)[nH]c(=O)c3c21` (stereo not drawn) [Example 3], the IC50 in assay [1] is 250 to 20000 nM; against activated MMP-8 enzyme, 250 to 20000 nM; in assay [2], under 100 nM.

As to `O=C(O)CNC(=O)CC1CCCc2sc3nc(C(=O)NCc4ccc5c(c4)NC(=O)CO5)[nH]c(=O)c3c21` (stereo not drawn) [Example 15], the 50% inhibitory concentration (IC50) is 250 to 20000 nM in assay [1], under 250 nM on activated MMP-8 enzyme and under 100 nM in assay [2].

In the case of `N#CC1CCc2sc3nc(C(=O)NCc4ccc5c(c4)NC(=O)CO5)[nH]c(=O)c3c21` (stereo not drawn) [Example 19], the 50% inhibitory concentration (IC50) in assay [1] was 250 to 20000 nM; against activated MMP-8 enzyme, under 250 nM; in assay [2] it was under 100 nM.

`O=C1COc2ccc(CNC(=O)c3nc4sc5c(c4c(=O)[nH]3)CCCS(=O)(=O)C5)cc2N1` [Example 22/1]: the concentration for half-maximal inhibition (IC50) was 250 to 20000 nM in assay [1], under 250 nM on activated MMP-8 enzyme and under 100 nM in assay [2].

Consider `O=C1COc2ccc(CNC(=O)c3nc4sc5c(c4c(=O)[nH]3)CCCS5(=O)=O)cc2N1` [Example 22], for which the half-maximal inhibitory concentration (IC50) in assay [1] is 250 to 20000 nM; against activated MMP-8 enzyme, 250 to 20000 nM; in assay [2], under 100 nM.

Take `O=C1COc2ccc(CNC(=O)c3nc4sc5c(c4c(=O)[nH]3)CCC[S+]([O-])C5)cc2N1` (stereo not drawn) [Example 26]: the IC50 in assay [1] is 250 to 20000 nM; against activated MMP-8 enzyme, under 250 nM; in assay [2], under 100 nM.

For `O=C1COc2ccc(CNC(=O)c3nc4ccc5c(c4c(=O)[nH]3)OCO5)cc2N1` [Example 28], the values for the half-maximal inhibitory concentration (IC50) in assay [1] and in assay [2] were under 250 nM and under 100 nM, respectively.

Consider `Cc1snc2sc3c(=O)[nH]c(C(=O)NCc4ccc5c(c4)NC(=O)CO5)nc3c12` [Example 39/7], for which the IC50 was 250 to 20000 nM in assay [1], 250 to 20000 nM on activated MMP-8 enzyme and 100 to 20000 nM in assay [2].

`O=C1COc2ccc(CNC(=O)c3nc4sc5c(c4c(=O)[nH]3)CN(C(=O)CC(F)(F)F)C5)cc2N1` [Example 42/1]: the half-maximal inhibitory concentration (IC50) (in assay [1]; against activated MMP-8 enzyme) was 250 to 20000 nM each time.

For `O=C1COc2ccc(CNC(=O)c3nc4sc5c(c4c(=O)[nH]3)CN(c3ncccn3)C5)cc2N1` [Example 43], the IC50 in assay [1] is under 250 nM; in assay [2] it was under 100 nM.
